The results in this text go back to US6596758B1, “Benzopyrans and benzoxepines, pharmaceutical compositions comprising them and preparation process” (Merck Patent GmbH, priority 1998, dated 2003).

One data set deals with PPARγ. The data set can be described thus: PPARγ activation, luciferase reporter (J3TkLuc) in CV1 cells. The data set is classed as cell-based, green monkey. The conditions noted are these: 36 hours incubation, relative to the control value. The source says: (§1) The hypolipidaemic and hypoglycaemic effect of the compounds of the invention results from their ability to activate the PPARα and PPARγ isoforms.
(§2) Analysis of the activation of PPARα and PPARγ is based on the transfection of a DNA allowing the expression of a reporter gene (the gene of luciferase) under the control of the PPARs, either endogenous in the case of PPARγ of exogenous in the case of PPARα. The reporter plasmid J3TkLuc comprises three copies of the response element for PPARs of the human apo A-II gene (Staels, B et al. (1995), J. Clin. Invest., 95, 705-712) which are cloned upstream of the promoter of the thymidine kinase gene of the herpes simplex virus in the plasmid pGL3. This reporter gene was obtained by subcloning, in the plasmid pGL3, the plasmid J3TkCAT described above (Fajas, L et al. (1997), J. Biol. Chem., 272, 18779-18789). […] These cells were inoculated at the rate of 20,000 cells per well (96-well plates) and transfected with 150 ng of reporter DNA complexed with a mixture of lipids. In the case of the SK-Hep1 cells, an expression vector for PPARα, described by Sher, T. et al. (1993), Biochemistry, 32, 5598-5604, is cotransfected. […] At the end of incubation, the cells are lysed and the luciferase activity is measured. […]
(Reporter assays use an easily measured gene product as a stand-in for the process of interest.)

The next data set addresses T1, PPARα (Homo sapiens, UniProt Q07869).
T1 construct: expressed in transfected cells
T1 sequence (Q07869 1-468): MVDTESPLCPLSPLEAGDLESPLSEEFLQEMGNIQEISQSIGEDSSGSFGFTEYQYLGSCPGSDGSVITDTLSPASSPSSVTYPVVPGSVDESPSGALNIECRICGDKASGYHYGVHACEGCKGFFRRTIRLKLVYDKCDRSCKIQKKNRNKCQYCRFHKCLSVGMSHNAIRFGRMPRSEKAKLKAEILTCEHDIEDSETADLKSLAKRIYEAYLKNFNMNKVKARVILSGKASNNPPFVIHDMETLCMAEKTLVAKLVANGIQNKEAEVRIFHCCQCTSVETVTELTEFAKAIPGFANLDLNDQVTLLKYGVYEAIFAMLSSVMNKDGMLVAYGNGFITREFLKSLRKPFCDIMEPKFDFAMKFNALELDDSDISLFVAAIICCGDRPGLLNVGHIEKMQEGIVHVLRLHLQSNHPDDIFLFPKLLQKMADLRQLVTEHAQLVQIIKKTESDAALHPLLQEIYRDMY
In words: PPARα activation, luciferase reporter (J3TkLuc) in SK-Hep1 cells cotransfected with PPARα expression vector. The data set is classed as cell-based. The conditions noted are these: 36 hours incubation, relative to the control value.
Description: as §1, §2

The subject of data set [1] is pGL3 reporter vector devoid of a PPAR response element. The data set can be described thus: pGL3 reporter vector devoid of a PPAR response element, CV1 cells. The data set is classed as cell-based, green monkey. The source says: (§3) Analysis of the activation of PPARα and PPARγ is based on the transfection of a DNA allowing the expression of a reporter gene (the gene of luciferase) under the control of the PPARs, either endogenous in the case of PPARγ of exogenous in the case of PPARα. The reporter plasmid J3TkLuc comprises three copies of the response element for PPARs of the human apo A-II gene (Staels, B et al. (1995), J. Clin. Invest., 95, 705-712) which are cloned upstream of the promoter of the thymidine kinase gene of the herpes simplex virus in the plasmid pGL3. This reporter gene was obtained by subcloning, in the plasmid pGL3, the plasmid J3TkCAT described above (Fajas, L et al. (1997), J. Biol. Chem., 272, 18779-18789). […] These cells were inoculated at the rate of 20,000 cells per well (96-well plates) and transfected with 150 ng of reporter DNA complexed with a mixture of lipids. In the case of the SK-Hep1 cells, an expression vector for PPARα, described by Sher, T. et al. (1993), Biochemistry, 32, 5598-5604, is cotransfected. After 5, hours, the cells are washed twice and incubated for 36 hours in the presence of the test compound in a fresh culture medium comprising 10% foetal calf serum. At the end of incubation, the cells are lysed and the luciferase activity is measured. This activity is expressed relative to the control value. […]

For data set [2] the test system is unchanged. The data set can be described thus: pGL3 reporter vector devoid of a PPAR response element, SK-Hep1 cells. The data set is classed as cell-based, human.
Description: as §3

The test system of a further data set is db/db mice. In words: Antidiabetic and hypolipidaemic activity by the oral route in db/db mice. The data set is classed as in vivo. The settings on record: 100 mg/kg/day per os. The procedure:
The antidiabetic and hypolipidaemic activity of the compounds of formula I [sic] was determined by the oral route in db/db mice.
Two-month-old db/db mice are treated per os for 15 days with the compound of Example 16 (100 mg/kg/day). Each study group comprises seven animals. After treating for three days (D3) and fifteen days (D15), retro-orbital samples are taken after light anaesthesia and fasting for 4 hours.
The following measurements were taken:
quantitative determination of glycaemia (glucose oxidase) at D3 and D15 and of the lipid parameters with regard to the sera at D15 (COBAS): triglycerides, total cholesterol (CHOL), HDL cholesterol (HDL-C) and free fatty acids (FFA) (BioMérieux and Wako Chemicals quantitative determination kit).
The measurements which appear in this table are mean values±standard error.

Setting [3] is: day 15, serum, mean ± standard error.

Usually melting point stands for the temperature, or range, at which the solid turns liquid. In turn, `CCCCCCCCCNC1Oc2ccccc2C=C1/C=C/C(C)=C/C(=O)O` (stereo not drawn) returned a melting point of 104 to 106 °C.
The same measure, in the same setting: the figure for `CCOC(=O)/C=C(C)/C=C/C1=Cc2ccccc2OC1` [Example 3a] is 110 to 112 °C; for `CC(/C=C/C1=Cc2ccccc2OC1)=C\C(=O)O` [Example 3b] it is 226 to 228 °C; for `CC(/C=C/C1=Cc2ccccc2OC1(C)C)=C\C(=O)O` [Example 4b] it is 164 to 166 °C.
Still for that read-out and setting: with `CC(=C/C(=O)O)/C=C/C1=Cc2ccccc2OC1(C)C` [Example 5b] the figure was 176 °C; with `CC(/C=C/C1=C(c2ccccc2)c2ccccc2OC1)=C\C(=O)O` [Example 7b], 258 to 260 °C; with `CC1=C(/C=C/C(C)=C/C(=O)O)COc2ccccc21` [Example 11b], 216 to 218 °C.
`CC(=C/C(=O)O)/C=C/C1=Cc2ccccc2OC1` [Example 12b] returned a melting point of 224 to 226 °C.
On the same count and under the same terms, with `CC(/C=C/C1=Cc2ccccc2OC1c1ccccc1)=C\C(=O)O` (stereo not drawn) [Example 14b] the figure was 200 to 202 °C.
With `COc1ccc2c(c1)C(/C=C/C(C)=C/C(=O)O)=CC(C)(C)CO2` [Example 16b, (2E, 4E)-5-(3,3-Dimethyl-7-methoxy-2,3-dihydrobenzoxepin-5-yl)-3-methylpenta-2,4-dienoic acid], in the data set with PPARγ, the “increase of the luciferase signal” value was 300%. The “increase of the luciferase signal” value on PPARα was 250%. In addition, in data set [1], the “luciferase activity with pGL3 reporter vector devoid of a PPAR response element” value is “inactive”. The “luciferase activity with pGL3 reporter vector devoid of a PPAR response element” value in data set [2] was “inactive”. The “Glycaemia D3, % variation with respect to the control” value with db/db mice (day 3) is listed as −28%. In addition, the “Glycaemia D3” value in the data set on db/db mice (day 3, fasting 4 hours, mean ± standard error) is 15.4 ± 3.8 mM. In the data set with db/db mice (day 15), the “Glycaemia D15, % variation with respect to the control” value is −40%. Moreover, the “Glycaemia D15” value in the data set with db/db mice (day 15, fasting 4 hours, mean ± standard error) amounted to 16.7 ± 4.4 mM. For the same compound, in the data set on db/db mice (day 15, serum), the “CHOL D15, % variation with respect to the control” value is on record as “+19%”; the “FFA, % variation with respect to the control” value is −20%; the “HDL-C D15, % variation with respect to the control” value is “+18%”; the “Triglycerides D15, % variation with respect to the control” value is reported as −68%. In the data set with db/db mice (setting [3]), the “CHOL D15 (total cholesterol)” value is 4.44 ± 0.39 mM, the “FFA (free fatty acids)” value is 0.82 ± 0.23 (ns) mM, the “HDL-C D15 (HDL cholesterol)” value worked out at 3.50 ± 0.37 mM and the “Triglycerides D15” value stood at 0.69 ± 0.09 mM.
`COc1ccc2c(c1)C(/C=C/C(C)=C/C(=O)O)=CC1(CCCCC1)CO2` [Example 34B, (2E, 4E)-5-(Spiro[(7-methoxy-2,3-dihydrobenzo[b]-oxepine)-3,1′-cyclohexane]-5-yl)-3-methyl-penta-2,4-dienoic acid]: the melting point was 173 to 174 °C.
The same measure, in the same setting: the figure for `CC(/C=C/C1=CC(C)(C)COc2cc(C)c(C)cc21)=C\C(=O)O` [Example 37B, 3-Methyl-5-(3,3,7,8-tetramethyl-2,3-dihydrobenzo[b]-oxepin-5-yl)penta-2,4-dienoic acid] is 171 to 173 °C; for `CCOC(=O)/C=C(C)/C=C/C1=CC(C)(C)COc2cc(-c3ccc(F)cc3)ccc21` [Example 38A, (2E, 4E)-5-[8-(4-Fluorophenyl)-3,3-dimethyl-2,3-dihydrobenzo[b]-oxepin-5-yl]-3-methylpenta-2,4-dienoic acid ethyl ester] it is 113 to 115 °C.
Same read-out and setting: with `CC(/C=C/C1=CC(C)(C)COc2cc(-c3ccc(F)cc3)ccc21)=C\C(=O)O` [Example 38B, (2E, 4E)-5-[8-(4-Fluorophenyl)-3,3-dimethyl-2,3-dihydrobenzo[b]-oxepin-5-yl]-3-methylpenta-2,4-dienoic acid] the figure was 207 to 209 °C.
The same measure, in the same setting: the figure for `COc1ccc2c(c1)OCC(C)(C)C=C2/C=C/C(C)=C/C(=O)O` [Example 39B, (2E, 4E)-5-(8-Methoxy-3,3-dimethyl-2,3-dihydrobenzo[b]-oxepin-5-yl)-3-methylpenta-2,4-dienoic acid] is 178 to 180 °C; for `CC(/C=C/C1=CC(C)(C)COc2ccc(C(C)C)cc21)=C\C(=O)O` [Example 40B, (2E, 4E)-5-(7-Isopropyl-3,3-dimethyl-2,3-dihydrobenzo[b]-oxepin-5-yl)-3-methylpenta-2,4-dienoic acid] it is 145 °C.
`CCCCCC1C=C(/C=C/C(C)=C/C(=O)O)c2cc(OC)ccc2OC1` (stereo not drawn) [Example 41, (2E, 4E)-5-(7-Methoxy-3-pentyl-2,3-dihydrobenzo[b]-oxepin-5-yl)-3-methylpenta-2,4-dienoic acid] came in with a melting point of 154 to 156 °C.
As for `CCC(/C=C/C1=CC(C)(C)COc2ccc(OC)cc21)=C\C(=O)O` [Example 43B, (2E, 4E)-3-Ethyl-5-(7-methoxy-3,3-dimethyl-2,3-dihydrobenzo[b]-oxepin-5-yl)penta-2,4-dienoic acid], the melting point is 166 to 168 °C.
On the same count and under the same terms, the figure for `CC(/C=C/C1=CC(C)(C)COc2ccc(O)cc21)=C\C(=O)O` [Example 44B] is 206 °C; for `CC(/C=C/C1=CC(C)(C)COc2ccc(-c3ccc(C(F)(F)F)cc3)cc21)=C\C(=O)O` [Example 45B, (2E, 4E)-5-[3,3-Dimethyl-7-(4-(trifluoromethyl)phenyl)-2,3-dihydrobenzo[b]-oxepin-5-yl]-3-methylpenta-2,4-dienoic acid] it is 194 to 196 °C.
The same measure, in the same setting: the figure for `COc1cccc2c1C(/C=C/C(C)=C/C(=O)O)=CC(C)(C)O2` [Example 46B, (2E, 4E)-5-(5-Methoxy-2,2-dimethyl-2H-chromen-4-yl)-3-methylpenta-2,4-dienoic acid] is 160 to 162 °C.
Same read-out and setting: with `COc1ccc2c(c1)C(/C=C/C(C)=C/C(=O)O)=CC(C)(C)CS2` [Example 47B, (2E, 4E)-5-(7-Methoxy-3,3-dimethyl-2,3-dihydrobenzo[b]-thiepin-5-yl)-3-methylpenta-2,4-dienoic acid] the figure was 159 to 161 °C; with `COc1ccc2c(c1)OC(C)(C)C=C2/C=C/C(C)=C/C(=O)O` [Example 48B, (2E, 4E)-5-(7-Methoxy-2,2-dimethyl-2H-chromen-4-yl)-3-methylpenta-2,4-dienoic acid], 162 to 163 °C.
`CCCC(/C=C/C1=CC(C)(C)COc2ccc(OC)cc21)=C\C(=O)O` [Example 49B, (2E, 4E)-5-(7-Methoxy-3,3-dimethyl-2,3-dihydrobenzo[b]-oxepin-5-yl)-3-propylpenta-2,4-dienoic acid] showed a melting point of 174 to 176 °C.
For `CC(/C=C/C1=CC(C)(C)COc2ccc(C3CCCCC3)cc21)=C\C(=O)O` [Example 50B, (2E, 4E)-5-(7-Cyclohexyl-3,3-dimethyl-2,3-dihydrobenzo[b]-oxepin-5-yl)-3-methylpenta-2,4-dienoic acid], the melting point fell in the range of 195 to 196 °C.
With `CCCCCC(/C=C/C1=CC(C)(C)COc2ccc(OC)cc21)=C\C(=O)O` [Example 52B, (2E, 4E)-5-(7-Methoxy-3,3-dimethyl-2,3-dihydrobenzo[b]-oxepin-5-yl)-3-pentylpenta-2,4-dienoic acid], the melting point was in the range of 147 to 149 °C.
Same read-out and setting: with `COc1ccc2c(c1)C(/C=C/C(C)=C/C(=O)O)=C(C)C(C)(C)CO2` [Example 54B, (2E, 4E)-5-(7-Methoxy-3,3,4-trimethyl-2,3-dihydrobenzo[b]-oxepin-5-yl)-3-methylpenta-2,4-dienoic acid] the figure was 129 to 130 °C.
